# Test results taken from patent publication US20260184750A1, “CONJUGATE COMPRISING PEPTIDE OF NOVEL SEQUENCE AND GLYCYRRHIZIN, AND PHARMACEUTICAL COMPOSITION FOR PREVENTING OR TREATING OBESITY COMPRISING SAME” (IUCF-HYU (INDUSTRY-UNIVERSITY COOPERATION FOUNDATION …, priority 2022, published 2026).
# Read-outs that look alike come from different tables or passages of the source. No end group written: not given here.
# T1: prohibitin (PHB) on the surface of adipocytes (mature 3T3-L1) (UniProt P67778 2-272, limits assumed)
# T1 construct: whole, on cells
# T1 sequence (looked up): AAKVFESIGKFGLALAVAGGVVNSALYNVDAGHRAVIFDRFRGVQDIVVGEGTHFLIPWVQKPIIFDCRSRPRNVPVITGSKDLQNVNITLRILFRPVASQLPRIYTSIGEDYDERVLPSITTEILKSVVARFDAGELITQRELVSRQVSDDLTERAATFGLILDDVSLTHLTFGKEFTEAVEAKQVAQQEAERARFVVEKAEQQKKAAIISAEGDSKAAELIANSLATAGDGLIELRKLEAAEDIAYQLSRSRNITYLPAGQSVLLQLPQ
# B1: 5mer candidate peptide GRRAK, FITC-labeled (peptide)
# peptide: GRRAK
# modifications: also: FITC-labeled, position not given here
# notes: Described as a 'working region'; also called working region GRRAK
# Experiments:
# [1] = Pharmacokinetics: blood residual concentration after intraperitoneal injection; assay type: in vivo, C57BL/6J; conditions: 13.5 mg/kg intraperitoneal
# Procedure: The pharmacokinetic indices were calculated by measuring the blood residual concentrations of GL derivatives. Specifically, GL and GL-PEG-AHP were injected intraperitoneally in an amount of 13.5 mg/kg into animals (C57BL/6J, 6 weeks old, 5 per cage). At each time point (0, 20, 30, 120, 240, and 480 minutes) following the intraperitoneal injection, the animals were sacrificed, and 300 μl of blood samples were obtained through the abdominal vein. The obtained blood samples were placed in EDTA tubes and centrifuged at 824×g for 30 minutes at 4° C. 50 μl of the supernatant was mixed with 100 μl of methanol, and the resulting mixture was vortexed for 10 minutes. Thereafter, centrifugation was performed again at 10,000×g for 10 minutes. 100 μl of the supernatant was mixed with 900 μl of the mobile phase, and the resulting mixture was filtered through a 0.45 μm syringe filter, and HPLC was performed (HPLC column: C8 column; mobile phase=methanol:acetonitrile:water:acetic acid=55:23.7:19.2:0.68; flow rate: 1 ml/min; injection volume: 20 μl) to measure the blood residual concentration of the drug over time. Detection was performed through UV at 245 nm.
# [2] = tested on: adipocytes (mature 3T3-L1); experiment: FACS targeting ability of FITC-labeled peptides in adipocytes; assay type: cell-based; conditions: 37° C.; for targeting ability (FACS): adipocytes (mature 3T3-L1), 1 μM FITC-labeled peptide, 30 minutes
# Procedure: To conduct cell experiments in adipocytes, preadipocytes were differentiated into adipocytes. Specifically, 3T3-L1 preadipocytes were first seeded in a well plate of a size suitable for the experimental purpose, and then cultured to 80% to 90% confluence. Thereafter, the cells were treated with an adipocyte differentiation induction reagent (insulin 10 μg/ml, dexamethasone 0.4 μg/ml, 3-isobutyl-1-methylxanthine 111 μg/ml) for three days. After washing the adipocyte differentiation induction reagent with phosphate-buffered saline (PBS), the cells were treated with Dulbecco's modified eagle medium (DMEM) containing insulin (10 μg/ml) every two days, and differentiation was induced for up to 14 days to generate adipocytes. Thereafter, on day 14 of the adipocyte differentiation induction, the cells were fixed with 4% paraformaldehyde and then treated with the Oil red O staining solution for two hours. In addition, the staining solution accumulated inside the cells was eluted with isopropanol, and a microplate reader was used to verify whether fatty acids were accumulated inside the adipocytes at a wavelength of 510 nm to finally confirm the differentiation.
# The targeting effect of the above-described candidate peptides was quantitatively verified in actual adipocytes and preadipocytes. Specifically, differentiated 3T3-L1 preadipocytes were treated at 37° C. for 30 minutes with 1 μM of the final FITC-labeled candidate peptides dissolved in DMEM.
# After washing with PBS, cells were detached from the well plate using a trypsin-ethlyenediaminetetraacetic acid (EDTA) (0.5%) solution and centrifuged at 1100 rpm for three minutes to obtain sedimented cells. […]
# The finally selected candidate peptide (adipose tissue homing peptide: AHP) (SEQ ID NO: 14: KGRRAKD) was quantitatively compared with another adipose tissue targeting sequence (adipose targeting sequence: ATS) (SEQ ID NO: 22: KGGRAKD) in adipocytes. […]
# [3] = tested on: obese adipocytes (FFA-treated mature 3T3-L1 cells); experiment: Anti-hypertrophic effect in obese adipocytes (Oil Red O); assay type: cell-based
# Procedure: To induce obesity in adipocytes at the cell experiment level, cells were treated with saturated fatty acids, and the process of inducing obese adipocytes and performing the experiment at the cell experiment level are shown in FIG. 16. Specifically, a saturated fatty acid (free fatty-acid) (FFA, palmitic acid) was dissolved in a 2% w/v bovine serum albumin (BSA) and 0.5% ethanol DMEM solution to a concentration of 500 μM. After treating with FFA for three days, the cells were washed, subjected to an Oil Red O staining solution process, and then the amount of accumulated fatty acids was measured through the absorbance at 510 nm. The results are shown in FIG. 17, and it was confirmed even through qualitative observation that the size of single fat droplets was very different. […]
# The anti-hypertrophy effect of GL derivatives in obesity-induced adipocytes according to the concentration was confirmed at the cell experiment level. […] The amount of fatty acids accumulated inside the cells was measured through the Oil Red O staining process on day 18 of differentiation. […]
# It was confirmed whether the anti-hypertrophic effect according to the expected mechanism of GL derivatives differed depending on the fatty acid treatment method. […] On day 18 of differentiation, the amount of fatty acids accumulated inside the cells was measured through the Oil Red O staining process.
# ABCA1 = ABCA1 cell membrane expression in adipocytes treated with LXR inhibitor GSK2033; assay type: cell-based; conditions: adipocytes treated with GL derivatives
# Procedure: It was confirmed through fluorescence images whether the cell membrane expression level of ABCA1 by GL derivatives is reduced in adipocytes by GSK2033, an LXR inhibitor. […] Specifically, 4×10^4 adipocytes were seeded in a 24-well plate and treated with each group (control, GL, PEG, AHP, GL-PEG, and GL-PEG-AHP) for 24 hours on day 14 of adipocyte differentiation. The cells were fixed using 4% PFA. After washing with PBS, the cells were incubated with 10% goat serum and 0.02% Tween-20 for 30 minutes at room temperature. The cells were treated with the ABCA1 antibody (Host: rabbit, 1:300) in PBST at room temperature for two hours. After washing with PBST, the cells were treated with an FITC-labeled secondary antibody (goat-anti-rabbit, 1:500) at room temperature for one hour. After washing with PBS, the cells were treated with DAPI for one minute at room temperature, and then fluorescence images were obtained.
# [4] = tested on: adipocytes (mature 3T3-L1); experiment: Confocal fluorescence imaging of peptide binding to adipocyte outer membrane; assay type: cell-based; conditions: 1 μM FITC-labeled peptide, 30 minutes, 37° C.
# Procedure: The binding of the candidate peptides to the adipocyte outer membrane was confirmed through fluorescence imaging. Specifically, differentiated 3T3-L1 preadipocytes were treated with 1 μM of the finally selected FITC-labeled candidate peptides in Table 2 dissolved in DMEM for 30 minutes at 37° C. After washing with PBS, cell nuclei were stained using 4′6,-diamidino-2-phenylindole (DAPI). Fluorescence images were taken using a confocal microscope (green fluorescence (FITC)=488 nm, blue fluorescence (DAPI)=405 nm).
# [5] = target: T1, prohibitin (PHB) on the surface of …; experiment: FACS of FITC-labeled peptide on mature 3T3-L1 adipocytes, 30 min at 37 °C
molecule,measurement,setting,value
"CC1(C)[C@@H](O[C@H]2O[C@H](C(=O)O)[C@@H](O)[C@H](O)[C@H]2O[C@@H]2O[C@H](C(=O)O)[C@@H](O)[C@H](O)[C@H]2O)CC[C@]2(C)[C@H]3C(=O)C=C4[C@@H]5C[C@@](C)(C(=O)O)CC[C@]5(C)CC[C@@]4(C)[C@]3(C)CC[C@@H]12 [GL, glycyrrhizin]",AUC(0-t),"[1]; C57BL/6J, mouse, plasma, ip",114 µg·h/mL
same,half-life,"[1]; C57BL/6J, mouse, plasma, ip",198 min
same,Cmax,"[1]; C57BL/6J, mouse, plasma, ip, read-out: Cmax",43800 ng/mL
same,Tmax,"[1]; C57BL/6J, mouse, plasma, ip, read-out: Tmax (converted)",20 min
"GRRAK: 5mer candidate peptide, SEQ ID NO: 6",targeting ability (FACS),[2],did not have a significant targeting ability
"GL-PEG-AHP: adipose tissue-targeting glycyrrhizin conjugate: GL amide-bonded to thiol-PEG-amine, disulfide-bonded to AHP (SEQ ID NO: 1: GKGRRAKDC) (also: glycyrrhizin-PEG conjugate, Cys9 disulfide-linked to thiol-PEG-GL)",difference in drug efficacy between pretreatment and co-treatment,"[3]; anti-hypertrophic effect, Oil Red O, day 18 of differentiation",greatest efficacy difference
same,anti-hypertrophic effect,"[3]; drug pretreatment, 25, 50, 100, 200, 400 μM, ranking between groups",most effective anti-hypertrophic effect
same,Cmax,[1],75200 ng/mL
same,T1/2,[1],3.45 h
same,Tmax,[1],20 min
Cc1cc(C)c(S(=O)(=O)N(Cc2ccc(-c3cccc(S(C)(=O)=O)c3)cc2)Cc2ccc(C(F)(F)F)o2)c(C)c1 [GSK2033],expression of ABCA1 in GL derivative groups by GSK2033 treatment,ABCA1,suppressed
"7mer 001: adipose tissue homing peptide, SEQ ID NO: 14: KGRRAKD; conjugated form SEQ ID NO: 1: GKGRRAKDC",adipocyte targeting effect compared with ATS (FACS),"[2]; 1 μM FITC-labeled AHP and ATS, 30 min",not inferior in efficacy to ATS
same,targeting ability (FACS),[2],most effective targeting ability
same,adipocyte targeting ability (confocal fluorescence images),[4],best adipocyte targeting ability
B1,binding result,[5],no binding (tested: 1 µM)
